Assay results from the NIST ThermoML archive (doi:10.1016/j.jct.2019.06.032).
Numbers after ± are expanded uncertainties.

Assay: xn = mol fraction of the nth substance listed
Details: 101 kPa, Liquid; for viscosity: Capillary tube (Ostwald / Ubbelohde) method; for mass density: Vibrating tube method

CCN(CC)CCO [(diethylamino)ethanol] + NCCO
Details | mass density, 293.15 K [kg/m3] | mass density, 303.15 K [kg/m3] | mass density, 313.15 K [kg/m3] | mass density, 323.15 K [kg/m3] | mass density, 333.15 K [kg/m3] | viscosity, 293.15 K [mPa·s] | viscosity, 303.15 K [mPa·s] | viscosity, 313.15 K [mPa·s] | viscosity, 323.15 K [mPa·s] | viscosity, 333.15 K [mPa·s]
x2 = 0 | 891.2 ± 10 | 874.4 ± 10 | 865.4 ± 10 | 856.4 ± 10 | 845.6 ± 10 | 4.848 ± 0.97 | 3.41 ± 0.68 | 2.466 ± 0.49 | 1.855 ± 0.37 | 1.431 ± 0.29
x2 = 0.1003 | 897.2 ± 10 | 881.4 ± 10 | 869.8 ± 10 | 859.4 ± 10 | 849.2 ± 10 | 6.52 ± 1.3 | 3.543 ± 0.71 | 2.619 ± 0.52 | 1.952 ± 0.39 | 1.568 ± 0.31
x2 = 0.2004 | 906.9 ± 10 | 892.2 ± 10 | 881.6 ± 10 | 871.1 ± 10 | 861 ± 10 | 8.275 ± 1.7 | 3.892 ± 0.78 | 2.982 ± 0.6 | 2.149 ± 0.43 | 1.746 ± 0.35
x2 = 0.2993 | 920.7 ± 10 | 906.2 ± 10 | 897.8 ± 10 | 887.6 ± 10 | 879.7 ± 10 | 10.42 ± 2.1 | 4.495 ± 0.9 | 3.501 ± 0.7 | 2.658 ± 0.53 | 2.107 ± 0.42
x2 = 0.4003 | 931.6 ± 10 | 918 ± 10 | 910.5 ± 10 | 901.2 ± 10 | 891.8 ± 10 | 12.32 ± 2.5 | 5.526 ± 1.1 | 4.04 ± 0.81 | 2.925 ± 0.59 | 2.426 ± 0.49
x2 = 0.5001 | 941 ± 10 | 929.9 ± 10 | 920.1 ± 10 | 910.2 ± 10 | 902.3 ± 10 | 13.76 ± 2.8 | 6.483 ± 1.3 | 4.629 ± 0.93 | 3.314 ± 0.66 | 2.767 ± 0.55
x2 = 0.6001 | 952.2 ± 10 | 942.1 ± 10 | 935 ± 10 | 926.9 ± 10 | 915.8 ± 10 | 15.98 ± 3.2 | 7.382 ± 1.5 | 5.072 ± 1 | 3.651 ± 0.73 | 3.007 ± 0.6
x2 = 0.7007 | 965.8 ± 10 | 954.2 ± 10 | 944.6 ± 10 | 935.9 ± 10 | 927.9 ± 10 | 17.27 ± 3.5 | 8.567 ± 1.7 | 5.754 ± 1.2 | 4.046 ± 0.81 | 3.273 ± 0.66
x2 = 0.8001 | 981.8 ± 10 | 971.6 ± 10 | 963 ± 10 | 954.3 ± 10 | 946.2 ± 10 | 19.77 ± 4 | 10.57 ± 2.1 | 7.21 ± 1.4 | 4.954 ± 0.99 | 3.651 ± 0.73
x2 = 0.9 | 999.8 ± 10 | 991.5 ± 10 | 982.7 ± 10 | 974.3 ± 10 | 965.5 ± 10 | 22.75 ± 4.6 | 13.44 ± 2.7 | 8.826 ± 1.8 | 6.018 ± 1.2 | 4.413 ± 0.88

CCN(CC)CCO [(diethylamino)ethanol] + O
Details | mass density, 293.15 K [kg/m3] | mass density, 303.15 K [kg/m3] | mass density, 313.15 K [kg/m3] | mass density, 323.15 K [kg/m3] | mass density, 333.15 K [kg/m3] | viscosity, 293.15 K [mPa·s] | viscosity, 303.15 K [mPa·s] | viscosity, 313.15 K [mPa·s] | viscosity, 323.15 K [mPa·s] | viscosity, 333.15 K [mPa·s]
x1 = 0.1001 | 982 ± 10 | 974.2 ± 10 | 966.6 ± 10 | 958.5 ± 10 | 950.1 ± 10 | 7.938 ± 1.6 | 5.548 ± 1.1 | 3.741 ± 0.76 | 2.623 ± 0.53 | 1.94 ± 0.39
x1 = 0.2005 | 962.4 ± 10 | 953 ± 10 | 944.3 ± 10 | 935 ± 10 | 925.6 ± 10 | 17.02 ± 3.4 | 10.01 ± 2 | 6.284 ± 1.3 | 4.233 ± 0.85 | 2.937 ± 0.59
x1 = 0.2997 | 946.6 ± 10 | 936.8 ± 10 | 926.9 ± 10 | 917.5 ± 10 | 907.6 ± 10 | 20.5 ± 4.1 | 11.01 ± 2.2 | 7.194 ± 1.4 | 4.584 ± 0.92 | 3.15 ± 0.63
x1 = 0.3978 | 933.4 ± 10 | 923.2 ± 10 | 913.9 ± 10 | 903.7 ± 10 | 893.9 ± 10 | 20.32 ± 4.1 | 9.991 ± 2 | 6.145 ± 1.2 | 4.058 ± 0.81 | 2.963 ± 0.59
x1 = 0.4997 | 922.2 ± 10 | 912 ± 10 | 901.8 ± 10 | 892 ± 10 | 882.4 ± 10 | 17.73 ± 3.5 | 9.074 ± 1.8 | 5.477 ± 1.1 | 3.605 ± 0.72 | 2.593 ± 0.52
x1 = 0.5992 | 914.4 ± 10 | 903.2 ± 10 | 892.8 ± 10 | 882.3 ± 10 | 872.5 ± 10 | 14.8 ± 3 | 8.421 ± 1.7 | 5.078 ± 1 | 3.05 ± 0.61 | 2.4 ± 0.48
x1 = 0.6897 | 906.3 ± 10 | 894.8 ± 10 | 884.2 ± 10 | 873.9 ± 10 | 864.7 ± 10 | 12.42 ± 2.5 | 7.125 ± 1.4 | 4.663 ± 0.93 | 2.692 ± 0.54 | 2.102 ± 0.42
x1 = 0.7997 | 899.6 ± 10 | 887.4 ± 10 | 876.9 ± 10 | 867.4 ± 10 | 857.3 ± 10 | 9.723 ± 1.9 | 6.002 ± 1.2 | 3.878 ± 0.78 | – | 1.794 ± 0.36
x1 = 0.8997 | 895.5 ± 10 | 880.8 ± 10 | 870.7 ± 10 | 861.4 ± 10 | 851.9 ± 10 | 7.341 ± 1.5 | 4.868 ± 0.98 | 3.402 ± 0.68 | 2.141 ± 0.43 | 1.619 ± 0.32
x1 = 1 | 891.2 ± 10 | 874.4 ± 10 | 865.4 ± 10 | 856.4 ± 10 | 845.6 ± 10 | 4.848 ± 0.97 | 3.41 ± 0.68 | 2.466 ± 0.49 | 1.855 ± 0.37 | 1.431 ± 0.29
